# Reference: patent US12539292B2, “BRM targeting compounds and associated methods of use” (Arvinas Operations, Inc., priority 2018, dated 2026)
# Target: T1, BRM (Homo sapiens, UniProt P51531)
# T1 construct: In-Cell Western Screen of BRM Degradation in SW1573 Cells; endogenous in cells; host or cells: SW1573
# Assay: In-cell Western screen of BRM degradation in SW1573 cells (Dmax and DC50)
# Type: cell-based
# Settings: for DC50: BRM degradation, read-out: BRM DC50; for Dmax: SW1573, % degraded, when tested at the top concentration of between 0.3 and 10 μM, read-out: BRM Dmax (%)
# Procedure, shortened: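 Near-infrared imaging on a LI-COR Odyssey (800 and 680 nm channels) quantifies BRM remaining in fixed SW1573 cells. Cells are dosed for 18-20 h at 0.1% final DMSO, and degradation is expressed as Dmax and DC50.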
# T1 sequence (P51531 whole entry): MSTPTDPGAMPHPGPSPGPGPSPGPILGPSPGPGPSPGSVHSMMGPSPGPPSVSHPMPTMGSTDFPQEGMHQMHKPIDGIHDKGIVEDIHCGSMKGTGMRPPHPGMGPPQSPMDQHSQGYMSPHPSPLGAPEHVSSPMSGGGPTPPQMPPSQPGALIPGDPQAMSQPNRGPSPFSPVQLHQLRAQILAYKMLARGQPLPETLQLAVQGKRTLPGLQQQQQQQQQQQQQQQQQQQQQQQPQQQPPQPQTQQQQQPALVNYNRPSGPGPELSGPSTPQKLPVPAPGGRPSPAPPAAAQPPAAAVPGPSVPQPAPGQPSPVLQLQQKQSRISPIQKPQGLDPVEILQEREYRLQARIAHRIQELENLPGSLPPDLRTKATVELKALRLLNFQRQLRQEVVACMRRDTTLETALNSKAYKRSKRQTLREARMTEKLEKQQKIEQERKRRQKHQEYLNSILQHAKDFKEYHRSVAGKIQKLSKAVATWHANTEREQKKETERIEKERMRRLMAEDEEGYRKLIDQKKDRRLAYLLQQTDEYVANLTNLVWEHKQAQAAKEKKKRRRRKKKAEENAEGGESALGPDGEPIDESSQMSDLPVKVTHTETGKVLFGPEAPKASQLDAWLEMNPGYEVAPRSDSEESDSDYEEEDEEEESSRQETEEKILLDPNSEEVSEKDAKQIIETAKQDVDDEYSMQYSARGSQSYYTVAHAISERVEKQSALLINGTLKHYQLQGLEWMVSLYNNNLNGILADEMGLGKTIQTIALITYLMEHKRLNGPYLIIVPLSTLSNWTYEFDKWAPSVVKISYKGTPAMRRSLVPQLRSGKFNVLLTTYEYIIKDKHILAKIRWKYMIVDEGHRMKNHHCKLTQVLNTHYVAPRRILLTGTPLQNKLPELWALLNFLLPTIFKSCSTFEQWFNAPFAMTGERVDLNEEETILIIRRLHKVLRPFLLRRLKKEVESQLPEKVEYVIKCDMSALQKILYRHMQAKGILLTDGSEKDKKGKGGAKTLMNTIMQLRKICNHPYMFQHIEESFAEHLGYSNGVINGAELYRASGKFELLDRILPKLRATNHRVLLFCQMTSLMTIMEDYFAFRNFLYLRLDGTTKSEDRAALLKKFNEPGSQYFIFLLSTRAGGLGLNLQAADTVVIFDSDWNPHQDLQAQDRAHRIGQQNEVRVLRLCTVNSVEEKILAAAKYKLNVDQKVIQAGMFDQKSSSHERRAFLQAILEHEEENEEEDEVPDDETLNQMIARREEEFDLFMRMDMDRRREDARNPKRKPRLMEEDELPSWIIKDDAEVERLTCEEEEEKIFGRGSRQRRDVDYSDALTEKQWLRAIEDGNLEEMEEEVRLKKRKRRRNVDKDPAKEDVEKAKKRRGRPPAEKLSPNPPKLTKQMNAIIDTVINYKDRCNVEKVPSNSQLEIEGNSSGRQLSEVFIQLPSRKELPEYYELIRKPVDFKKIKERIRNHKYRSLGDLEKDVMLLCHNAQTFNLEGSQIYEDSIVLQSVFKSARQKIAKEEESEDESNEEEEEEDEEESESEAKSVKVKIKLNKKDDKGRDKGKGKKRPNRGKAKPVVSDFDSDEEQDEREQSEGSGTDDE
SMILES,DC50,Dmax
"Cc1ncsc1-c1cnc([C@H](C)NC(=O)[C@@H]2C[C@@H](O)CN2C(=O)[C@@H](c2cc(OCCN3CCC(O[C@H]4C[C@H](Oc5cc(N6C7CCC6CN(c6cc(-c8ccccc8O)nnc6N)C7)ccn5)C4)CC3)no2)C(C)C)cn1 [compound 491, (2S,4R)-1-((2R)-2-(3-(2-(4-((1r,3R)-3-((4-(3-(3-amino-6-(2-hydroxyphenyl)pyridazin-4-yl)-3,8-diazabicyclo[3.2.1]octan-8-yl)pyridin-2-yl)oxy)cyclobutoxy)piperidin-1-yl)ethoxy)isoxazol-5-yl)-3-methylbutanoyl)-4-hydroxy-N-((S)-1-(5-(4-methylthiazol-5-yl)pyrazin-2-yl)ethyl)pyrrolidine-2-carboxamide]",< 2.5 nM,> 75%
"Cc1ncsc1-c1ccc([C@H](C)NC(=O)[C@@H]2C[C@@H](O)CN2C(=O)[C@H](c2cc(OCCN3CCC(O[C@H]4C[C@H](Nc5cc(N6C7CCC6CN(c6cc(-c8ccccc8O)nnc6N)C7)ccn5)C4)CC3)no2)C(C)C)cc1 [compound 492, (2S,4R)-1-((2S)-2-(3-(2-(4-((1r,3S)-3-((4-(3-(3-amino-6-(2-hydroxyphenyl)pyridazin-4-yl)-3,8-diazabicyclo[3.2.1]octan-8-yl)pyridin-2-yl)amino)cyclobutoxy)piperidin-1-yl)ethoxy)isoxazol-5-yl)-3-methylbutanoyl)-4-hydroxy-N-((S)-1-(4-(4-methylthiazol-5-yl)phenyl)ethyl)pyrrolidine-2-carboxamide]",> 30 nM,–
"Cc1ncsc1-c1ccc([C@H](C)NC(=O)[C@@H]2C[C@@H](O)CN2C(=O)[C@@H](c2cc(OCCN3CCC(O[C@H]4C[C@H](Nc5cc(N6C7CCC6CN(c6cc(-c8ccccc8O)nnc6N)C7)ccn5)C4)CC3)no2)C(C)C)cc1 [compound 493, (2S,4R)-1-((2R)-2-(3-(2-(4-((1r,3R)-3-((4-(3-(3-amino-6-(2-hydroxyphenyl)pyridazin-4-yl)-3,8-diazabicyclo[3.2.1]octan-8-yl)pyridin-2-yl)amino)cyclobutoxy)piperidin-1-yl)ethoxy)isoxazol-5-yl)-3-methylbutanoyl)-4-hydroxy-N-((S)-1-(4-(4-methylthiazol-5-yl)phenyl)ethyl)pyrrolidine-2-carboxamide]",< 2.5 nM,> 75%
"Cc1cc([C@@H](C(=O)N2C[C@H](O)C[C@H]2C(=O)N[C@@H](C)c2ccc(-c3scnc3C)cc2)[C@@H](C)COCCCOc2cc(N3C4CCC3CN(c3cc(-c5ccccc5O)nnc3N)C4)ccn2)on1 [compound 494, (2S,4R)-1-((2S,3R)-4-(3-((4-(3-(3-amino-6-(2-hydroxyphenyl)pyridazin-4-yl)-3,8-diazabicyclo[3.2.1]octan-8-yl)pyridin-2-yl)oxy)propoxy)-3-methyl-2-(3-methylisoxazol-5-yl)butanoyl)-4-hydroxy-N-((S)-1-(4-(4-methylthiazol-5-yl)phenyl)ethyl)pyrrolidine-2-carboxamide]",< 2.5 nM,> 75%
"Cc1cc([C@H](C(=O)N2C[C@H](O)C[C@H]2C(=O)N[C@@H](C)c2ccc(-c3scnc3C)cc2)[C@@H](C)COCCCOc2cc(N3C4CCC3CN(c3cc(-c5ccccc5O)nnc3N)C4)ccn2)on1 [compound 495, (2S,4R)-1-((2R,3R)-4-(3-((4-(3-(3-amino-6-(2-hydroxyphenyl)pyridazin-4-yl)-3,8-diazabicyclo[3.2.1]octan-8-yl)pyridin-2-yl)oxy)propoxy)-3-methyl-2-(3-methylisoxazol-5-yl)butanoyl)-4-hydroxy-N-((S)-1-(4-(4-methylthiazol-5-yl)phenyl)ethyl)pyrrolidine-2-carboxamide]",> 30 nM,–
